In patent US9505735B2, “Compounds for treating infectious diseases” (Whitehead Institute for Biomedical Research, priority 2012, dated 2016):
pEC50: −log10 of the molar value. Values joined by “and” are separate entries in the source; they are usually repeats but may differ in a detail not shown here. Equal values may be shown once. Read-outs that look alike come from different tables or passages of the source.

How the values were obtained:
Gwt1 = target: T1, Gwt1 (Saccharomyces cerevisiae, UniProt P47026); assay: Antifungal susceptibility testing, screening strains with plasmid-borne GWT1 (low or high copy); assay type: cell-based, S. cerevisiae
T1 construct: Wildtype S. cerevisiae BY4741; endogenous in cells; host or cells: S. cerevisiae BY4741 (wild type)
T1 sequence (P47026 1-490): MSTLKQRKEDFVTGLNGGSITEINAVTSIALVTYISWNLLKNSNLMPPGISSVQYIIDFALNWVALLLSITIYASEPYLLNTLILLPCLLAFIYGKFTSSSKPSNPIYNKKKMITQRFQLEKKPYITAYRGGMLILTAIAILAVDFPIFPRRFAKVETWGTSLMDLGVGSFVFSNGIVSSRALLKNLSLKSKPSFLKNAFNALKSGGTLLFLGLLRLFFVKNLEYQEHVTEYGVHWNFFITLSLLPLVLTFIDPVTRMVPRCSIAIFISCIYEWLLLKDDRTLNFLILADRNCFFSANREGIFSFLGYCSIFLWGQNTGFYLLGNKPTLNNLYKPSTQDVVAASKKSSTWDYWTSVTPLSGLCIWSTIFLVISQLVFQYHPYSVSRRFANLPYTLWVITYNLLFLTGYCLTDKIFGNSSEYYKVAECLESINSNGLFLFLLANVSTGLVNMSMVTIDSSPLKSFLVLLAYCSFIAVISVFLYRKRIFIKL
Method: (§1) Sensitivity to gepinacin was determined in 96-well, flat bottom microtiter plates using a modification of the NCCLS broth microdilution protocol CLS M27-A3 and RPMI as culture medium. Fungi were inoculated at ˜10^3 cells per ml and incubated for 48 hours at 37° C. after which plates were sealed, shaken and the optical density read at 600 nm (OD600) on a Tecan Safire 2 plate reader. All samples were run in duplicate or triplicate and assays were repeated at least once. Results are expressed as fraction of growth in the absence of compound and the mean and standard deviation are plotted. For the mold A. terreus, inoculum was 10^4 cells per ml and plates were incubated at 35° C. for 48 hours in the dark. Plates were then visually scored as specified by CLSI document M38-A2 to determine the MIC50 and MIC80.
Because GWT1 deletion is lethal in S. cerevisiae strain BY4741, a haploid shuttle strain was constructed in which the genomic copy of GWT1 was deleted and replaced by GWT1 on a plasmid that also encoded the URA3 gene and a G418-resistance gene. To construct this shuttle strain a gwt1Δ/GWT1 heterozygous deletion mutant was transformed with pAGGPD416-GWT1, sporulated and dissected. A colony was selected that grew on both SD-URA and G418-containing plates. PCR with the deletion specific primers (http://wwwsequence.stanford.edu/group/yeast_deletion_project/deletions3.html) was performed to confirm the GWT1 deletion. To change the source of GWT, this shuttle strain was transformed with plasmids containing GWT1 (as a control) or PIG-W and the LEU2 auxotrophy gene followed by selection for growth on SD-LEU plates. Plasmids were constructed by conventional Gateway technology using a GWT1 encoding entry vector and either pAG415GPDccdB or pAG425GPDccdB as the destination vectors. Positive colonies were selected and grown on 5-fluoroorotic acid (5-FOA)-containing plates to promote loss of the pAGGPD416-GWT1 plasmid. The colonies from this plate were then tested for return of uridine auxotrophy to confirm pAGGPD416-GWT1 loss. The PIG-W expression vector was constructed by recombination in yeast as follows. The pAG415GPDccdB vector was cut with Xho1 and Xba1 and the larger piece was gel and column purified. The coding sequence of PIG-W was PCR amplified from the entry clone so that it would have ends facilitating recombination with the cut vector. The shuttle strain was then transformed with these two DNA fragments and plated on SD-LEU plates to select for recombinants. PIG-W plasmid was isolated from the final strain and sequence verified.
(§2) The following gepinacin analogs were tested for activity against Gwt1. Gepinacin, M3, CM2, CM4, CM6, CM7, CM8, and 857621-56-8 were available commercially. The compounds were tested using the “Antifungal Susceptibility Testing” protocol described above. Fungi tested are described in the “Fungal Strains” section above.
An S. cerevesiae strain was generated in which the endogenous Gwt1 gene was deleted. Plasmids (either high copy or low copy) with either S. cerevesiae or human Gwt1 were introduced to produce strains bearing such plasmids expressing either S. cerevesiae or human Gwt1 from a constitutive promoter. Yeast strains were cultured in liquid media in the presence of indicated compounds. Shown in FIGS. 22A-D show the effect of the indicated compounds on growth (assessed by OD600) and viability (assessed using Bactiter Glo) of the yeast strain with high copy or low copy plasmid containing S. cerevesiae Gwt1. The compounds had no effect on strains with the human Gwt1, thus showing the compounds' sensitivity for the fungal (yeast) Gwt1 gene.

[1] = test system: Wildtype S. cerevisiae BY4741; assay: Antifungal susceptibility testing, wildtype yeast; assay type: cell-based; settings: Saccharomyces cerevisiae, read-out: EC50 Avg
Method: Archives of all strains were maintained in 25% glycerol at −80° C. Standard S. cerevisiae lab strains W303, BY4741, BY4742 and BY4743 were used for experiments. The C. albicans wild type strain in FIG. 1 was CaI4, a standard laboratory strain (Fonzi, et al. (1993) Genetics 134, 717-728). The C. albicans fluconazole-resistant strains CaCi-2, CaCi-8 and CaCi17 were generously provided by Ted White and originally collected by Spencer Redding and colleagues (White, (1997) Antimicrob Agents Chemother 41, 1488-1494; White, (1997) Antimicrob Agents Chemother 41, 1482-1487; White, et al. (1997) Oral Dis 3 Suppl 1, S102-109). The sequenced C. albicans wild type strain, Sc5314 (Gillum, et al. (1984) Mol Gen Genet 198, 179-182) used in P-glucan experiments was a gift from John Perfect's lab. CaAmphR, an amphotericin B-resistant strain is from ATCC (#20095). Caspofungin-resistant strain Cfr1 was derived by plating Sc5314 on caspofungin plates and isolating resistant colonies. A. terreus was purchased from ATCC (MYA-3633). The C. glabrata strain CgL5c was obtained from John Bennett's lab. The YKO heterozygous diploid strain collection is from Open Biosystems and was generated in BY4743. Haploid deletion strains were from the Yeast Knock-out Deletion Collection and purchased from Invitrogen. The over-expression library was made by transforming BY4741 with the Harvard Institute of Proteomics Flexgene library.
as §1, §2

[2] = test system: unfolded protein response; assay: Unfolded protein response GFP reporter (UPRE-GFP), flow cytometry; assay type: cell-based, S. cerevisiae; settings: 5 hours
Method: Induction of the unfolded protein response in cells carrying a GFP reporter construct was monitored by flow cytometry after exposure to serial dilutions of the indicated compounds for 5 hrs.
The plasmid pRS304-4XUPRE-GFP was linearized and integrated into the TRP1 locus of S. cerevisiae (W303) to construct a reporter strain as previously described (Cox, et al. (1993) Cell 73, 1197-1206; Pollard, et al. (1998) Mol Cell 1, 171-182). Reporter cells were grown to log phase and exposed to compound at 23° C. for 5 hours before analysis. GFP reporter induction was monitored on a Guava EasyCyte Plus cytometer. The average mean channel fluorescence of duplicate samples was determined, and the experiment was performed twice with similar results.

Gas1 and CPY maturation = assay: Protein trafficking analysis (immunoblot of reporter proteins); assay type: cell-based, S. cerevisiae; settings: 10 μM, 1 hour
Method: (§3) (A) Immunoblots of lysates prepared from S. cerevisiae treated with gepinacin showing GPI-anchor-selective impairment of protein maturation. The unprocessed (u), precursor (p), and mature (m) forms of the reporter proteins are indicated. The identity of the tagged reporter proteins (top of panel) and the antibodies used for their detection (bottom of panel) are also indicated. Treatment conditions are DMSO (0.05%), gepinacin (GPN, 10 μM) or tunicamycin (Tun, 10 μM). The same lysate was used for both blots. […] GFP expression was monitored by flow cytometry. (C) Anti-fungal susceptibility testing of strains deleted for IRE1 (activator of the UPR) or HAC1 (effector of the UPR) showing their increased sensitivity to gepinacin.
HA-tagged GAS1 was expressed in strain BY4741 CPY-GFP (Yeast GFP collection (Huh, et al. (2003) Nature 425, 686-691) under control of its own promoter using plasmid pCM-HA-GAS1. This construct was created as previously reported except in a gateway plasmid backbone (Fujita, et al. (2006) Mol Biol Cell 17, 834-850). To assess effects on trafficking, strains were incubated for 1 hour at 30° C. with test compounds. Total cellular protein (5 μg) was separated by electrophoresis (Invitrogen 8% gels) and transferred to nitrocellulose membranes. Blots were hybridized with antibodies against HA (Covance), GFP (Roche), or CPY (Invitrogen). Sizes for the various post-translationally modified products of Gas1HA2 and CPY have been previously reported (Fujita, et al. (2006) Mol Biol Cell 17, 834-850). CPY-GFP was used to facilitate discrimination of CPY processing steps because GFP is cleaved from CPY in the yeast vacuole. The experiment, however, was also performed with untagged CPY with the same results.

[3] = test system: S. cerevisiae strains deleted for IRE1 or HAC1; assay: Antifungal susceptibility testing of UPR-deficient strains; assay type: cell-based; settings: 48 hour
Method: as §3
Anti-fungal susceptibility testing of strains bearing deletion of IRE1 (activator of the UPR) or HAC1 (effector of the UPR) using either […] (A) or fluconazole (B). Growth was measured by OD600 after 48 hour exposure to serial dilutions of the compounds as indicated. Results are expressed as a fraction of the OD600 measured in the absence of gepinacin. The mean and standard deviation of triplicate determinations are shown.

PIG-W = target: T2, PIG-W (Homo sapiens, UniProt Q7Z7B1); assay: Growth of S. cerevisiae strain whose GWT1 is replaced by the human gene PIG-W; assay type: cell-based
T2 construct: expressed in transfected cells; host or cells: S. cerevisiae BY4741-derived gwt1 deletion shuttle strain carrying a pAG415GPD-based PIG-W plasmid
T2 sequence (Q7Z7B1 1-504): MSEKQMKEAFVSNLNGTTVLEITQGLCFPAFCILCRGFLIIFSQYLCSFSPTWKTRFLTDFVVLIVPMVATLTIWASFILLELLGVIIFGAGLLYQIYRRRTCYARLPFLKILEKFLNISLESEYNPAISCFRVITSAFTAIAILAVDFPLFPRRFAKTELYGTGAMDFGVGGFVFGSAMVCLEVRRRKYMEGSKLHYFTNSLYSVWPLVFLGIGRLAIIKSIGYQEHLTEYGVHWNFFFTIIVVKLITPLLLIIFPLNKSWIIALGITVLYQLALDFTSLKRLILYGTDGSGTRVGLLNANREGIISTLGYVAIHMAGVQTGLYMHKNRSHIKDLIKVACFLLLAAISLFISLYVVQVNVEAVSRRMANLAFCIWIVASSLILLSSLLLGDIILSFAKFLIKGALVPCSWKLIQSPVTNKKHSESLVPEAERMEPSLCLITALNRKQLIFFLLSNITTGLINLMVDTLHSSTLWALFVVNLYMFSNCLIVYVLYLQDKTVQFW
Method: as §1
Because GWT1 deletion is lethal in S. cerevisiae strain BY4741, a haploid shuttle strain was constructed in which the genomic copy of GWT1 was deleted and replaced by GWT1 on a plasmid that also encoded the URA3 gene and a G418-resistance gene. […]
An S. cerevesiae strain was generated in which the endogenous Gwt1 gene was deleted. […] Shown in FIGS. 22A-D show the effect of the indicated compounds on growth (assessed by OD600) and viability (assessed using Bactiter Glo) of the yeast strain with high copy or low copy plasmid containing S. cerevesiae Gwt1. […]

[4] = EC50 High Copy GWT1, Screening strains, high copy GWT1 plasmid
[5] = EC50 Low Copy GWT1, Screening strains, low copy GWT1 plasmid

COc1ccc(NC(=O)C(C)Oc2cccc(OCC(C)C)c2)cc1 (stereo not drawn) [MAZ1855]
pEC50 (Gwt1; [4]): 4.03
pEC50 (Gwt1; [5]): 4.89

COc1ccc(NC(=O)COc2cccc(Oc3ccccn3)c2)cc1 [MAZ1859]
pEC50 (Gwt1; [4]): 5.14
pEC50 (Gwt1; [5]): 5.31

CC(C)COc1cccc(OCC(=O)Nc2ccc(N(C)C)cc2)c1 [CM3]
pEC50 [1]: 4.74

CC[C@H](C)C[C@H](C)CCCCCCCCC(=O)N[C@H]1C[C@@H](O)[C@@H](NCCN)NC(=O)[C@@H]2[C@@H](O)CCN2C(=O)[C@H]([C@H](O)CCN)NC(=O)[C@H]([C@H](O)[C@@H](O)c2ccc(O)cc2)NC(=O)[C@@H]2C[C@@H](O)CN2C(=O)[C@H]([C@@H](C)O)NC1=O [caspofungin]
activation of the unfolded protein response (GFP reporter) [2]: not seen

tunicamycin [reference compound]
activation of the unfolded protein response (GFP reporter) [2]: Strong induction
CPY (not GPI-anchored) processing (Gas1 and CPY maturation): alters the processing of both proteins
Gas1 (GPI-anchored) maturation: mature versus precursor form (Gas1 and CPY maturation): alters the processing of both proteins

COc1ccc(NC(=O)COc2cccc(OCC(C)C)c2)cc1 [LW16]
pEC50 ([1]; Wildtype S. cerevisiae BY4741): 5.54
pEC50 (Gwt1; [4]): 5.93 and 5.72 and 5.07

COc1ccc(NC(=O)COc2cccc(OCc3ccccc3)c2)cc1 [MAZ1857]
pEC50 (Gwt1; [4]): 3.57
pEC50 (Gwt1; [5]): 3.75

OC(Cn1cncn1)(Cn1cncn1)c1ccc(F)cc1F [fluconazole, reference compound]
activation of the unfolded protein response (GFP reporter) [2]: not seen
change of toxicity by deletion of HAC1 or IRE1 [3]: completely unaffected

COc1ccc(NC(=O)COc2cccc(OCCC(C)C)c2)cc1 [CM7]
pEC50 ([1]; Wildtype S. cerevisiae BY4741): 5.58
pEC50 (Gwt1; [4]): 5.21
pEC50 (Gwt1; [5]): 5.88

C[C@@H]1[C@H](O)[C@@H](C)/C=C/C=C/C=C/C=C/C=C/C=C/C=C/[C@H](O[C@@H]2O[C@H](C)[C@@H](O)[C@H](N)[C@@H]2O)C[C@@H]2O[C@](O)(C[C@@H](O)C[C@@H](O)[C@H](O)CC[C@@H](O)C[C@@H](O)CC(=O)O[C@H]1C)C[C@H](O)[C@H]2C(=O)O [amphotericin B]
activation of the unfolded protein response (GFP reporter) [2]: not seen

COc1ccc(NC(=O)C(C)Oc2cccc(OCc3ccccc3)c2)cc1 (stereo not drawn) [MAZ1844]
activity against PigW / in the PIG-W expressing strain (PIG-W): active
activity against Gwt1 (Gwt1): not Gwt1

CC(C)COc1cccc(OCC(=O)Nc2ccc(F)cc2)c1 [CM2]
pEC50 ([1]; Wildtype S. cerevisiae BY4741): 5.15
pEC50 (Gwt1; [4]): 5.51
pEC50 (Gwt1; [5]): 5.94
